Common to all, as to assay type: biochemical
Test [1] has as its target T1, Zap-70 (Homo sapiens, UniProt P43403).
T1 construct: Kinases are expressed as either kinase domains or full length constructs; made in house
T1 sequence (P43403 1-619): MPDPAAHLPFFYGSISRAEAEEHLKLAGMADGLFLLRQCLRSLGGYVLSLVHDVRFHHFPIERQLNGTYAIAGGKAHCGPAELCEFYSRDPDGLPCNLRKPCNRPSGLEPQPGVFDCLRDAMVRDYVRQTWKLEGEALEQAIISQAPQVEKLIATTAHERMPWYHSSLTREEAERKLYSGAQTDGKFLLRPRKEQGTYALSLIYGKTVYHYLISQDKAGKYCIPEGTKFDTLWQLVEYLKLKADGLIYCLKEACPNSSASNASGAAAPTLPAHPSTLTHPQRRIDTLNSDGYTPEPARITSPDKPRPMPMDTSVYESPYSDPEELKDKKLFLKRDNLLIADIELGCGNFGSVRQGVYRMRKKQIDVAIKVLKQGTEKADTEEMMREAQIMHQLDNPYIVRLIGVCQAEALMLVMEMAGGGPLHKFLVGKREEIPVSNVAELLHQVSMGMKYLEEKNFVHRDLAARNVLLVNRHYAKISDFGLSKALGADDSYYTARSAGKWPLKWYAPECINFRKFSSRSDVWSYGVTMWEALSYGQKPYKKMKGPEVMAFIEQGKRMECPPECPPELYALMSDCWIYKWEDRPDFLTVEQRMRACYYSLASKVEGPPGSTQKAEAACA
The experiment in a line: Kinase inhibition assay (33P transfer), Zap-70. The note with it: Table 3; read-out: Zap-1. In a few lines: (§1)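 GST/His-tagged kinase (domain or full length; E. coli or baculovirus) + [33P]ATP on plates coated with poly(Glu,Tyr) 4:1 or poly(Arg,Ser) 3:1; incubate, wash 0.5% H3PO4, add scintillant, count.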

Test [2] concerns the target T2, EGFR (Homo sapiens, UniProt P00533).
T2 construct: Kinases are expressed as either kinase domains or full length constructs; made in house
The experiment in a line: Kinase inhibition assay (33P transfer), EGFR. The note with it: Table 2, kinase inhibition class; read-out: EGFR-1. Summed up: (§2)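 Steps: coat wells with poly(Glu,Tyr) 4:1 or poly(Arg,Ser) 3:1; add purified kinase, [33P]ATP and inhibitor; incubate; wash with 0.5% phosphoric acid; add liquid scintillant; count. IC50 corresponds to half-maximal reduction of bound 33P.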

The target in test [3] is T3, EPHB4 (Homo sapiens, UniProt P54760).
T3 construct: Kinases are expressed as either kinase domains or full length constructs; made in house
T3 sequence (P54760 16-987): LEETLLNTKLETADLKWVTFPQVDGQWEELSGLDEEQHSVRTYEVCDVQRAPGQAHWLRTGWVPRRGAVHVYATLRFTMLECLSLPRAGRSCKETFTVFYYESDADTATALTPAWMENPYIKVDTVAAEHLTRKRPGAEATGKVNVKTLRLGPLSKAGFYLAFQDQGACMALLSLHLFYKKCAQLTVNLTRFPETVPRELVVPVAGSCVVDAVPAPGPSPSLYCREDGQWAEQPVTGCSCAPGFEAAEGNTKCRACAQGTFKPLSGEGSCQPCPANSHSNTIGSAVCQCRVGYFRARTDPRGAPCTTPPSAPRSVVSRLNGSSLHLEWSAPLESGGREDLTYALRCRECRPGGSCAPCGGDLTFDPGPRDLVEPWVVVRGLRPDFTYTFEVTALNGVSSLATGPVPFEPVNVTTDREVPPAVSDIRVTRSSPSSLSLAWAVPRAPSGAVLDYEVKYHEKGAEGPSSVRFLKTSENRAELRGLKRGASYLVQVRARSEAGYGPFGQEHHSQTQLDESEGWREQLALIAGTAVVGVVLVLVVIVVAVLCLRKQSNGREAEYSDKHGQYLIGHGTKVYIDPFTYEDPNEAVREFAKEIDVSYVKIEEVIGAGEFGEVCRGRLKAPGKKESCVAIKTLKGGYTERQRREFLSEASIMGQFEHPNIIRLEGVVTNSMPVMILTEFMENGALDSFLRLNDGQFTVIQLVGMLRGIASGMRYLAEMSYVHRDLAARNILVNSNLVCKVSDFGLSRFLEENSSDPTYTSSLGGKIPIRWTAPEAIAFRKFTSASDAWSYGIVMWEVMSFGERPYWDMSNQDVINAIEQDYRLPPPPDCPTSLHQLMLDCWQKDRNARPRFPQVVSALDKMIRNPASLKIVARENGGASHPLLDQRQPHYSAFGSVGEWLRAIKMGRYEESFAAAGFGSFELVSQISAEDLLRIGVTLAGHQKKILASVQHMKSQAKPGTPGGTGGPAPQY
The experiment in a line: Kinase inhibition assay (33P transfer), EPHB4. The note with it: read-out: EPHB4-1.

The target of test [4] is T4, Kdr (Homo sapiens, UniProt P35968).
T4 construct: Kinases are expressed as either kinase domains or full length constructs; made in house
The test is described as follows: Kinase inhibition assay (33P transfer), Kdr. Conditions: Table 3; read-out: KDR-1. Summed up: as §1

The target of test [5] is T5, Itk (Homo sapiens, UniProt Q08881).
T5 construct: Kinases are expressed as either kinase domains or full length constructs; made in house
T5 sequence (Q08881 1-620): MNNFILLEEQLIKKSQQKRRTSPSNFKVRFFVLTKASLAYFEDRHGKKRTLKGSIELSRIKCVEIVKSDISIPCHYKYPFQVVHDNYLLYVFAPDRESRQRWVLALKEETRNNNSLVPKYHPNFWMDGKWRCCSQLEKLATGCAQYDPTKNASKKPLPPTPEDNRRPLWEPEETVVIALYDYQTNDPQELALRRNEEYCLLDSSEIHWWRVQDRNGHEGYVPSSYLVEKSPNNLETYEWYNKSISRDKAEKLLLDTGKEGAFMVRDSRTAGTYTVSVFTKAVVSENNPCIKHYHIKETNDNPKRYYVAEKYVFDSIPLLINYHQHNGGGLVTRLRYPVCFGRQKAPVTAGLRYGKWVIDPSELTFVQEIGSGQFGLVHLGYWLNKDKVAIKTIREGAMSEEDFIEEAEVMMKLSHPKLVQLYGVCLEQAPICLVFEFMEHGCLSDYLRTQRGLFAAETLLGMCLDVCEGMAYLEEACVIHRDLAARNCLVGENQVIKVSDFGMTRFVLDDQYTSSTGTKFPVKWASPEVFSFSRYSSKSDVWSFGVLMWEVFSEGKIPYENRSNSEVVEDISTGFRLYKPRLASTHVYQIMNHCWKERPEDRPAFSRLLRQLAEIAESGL
The experiment in a line: Kinase inhibition assay (33P transfer), Itk. Conditions: Table 3; read-out: Itk-1. In a few lines:
as §2

Test [6] concerns the target T6, IGFR-1 (Homo sapiens, UniProt P08069).
T6 construct: Kinases are expressed as either kinase domains or full length constructs; made in house
The experiment in a line: Kinase inhibition assay (33P transfer), IGFR-1. The note with it: Table 2, kinase inhibition class.

Test [7] addresses T7, c-Met (Homo sapiens, UniProt P08581).
T7 construct: Kinases are expressed as either kinase domains or full length constructs; made in house
The test is described as follows: Kinase inhibition assay (33P transfer), c-Met. The note with it: Table 2, kinase inhibition class; read-out: Met-1. In a few lines:
as §2

Test [8] has as its target T8, AKT (Homo sapiens, UniProt Q9Y243).
T8 construct: Kinases are expressed as either kinase domains or full length constructs; made in house
The test is described as follows: Kinase inhibition assay (33P transfer), AKT. Conditions: Table 2, kinase inhibition class; read-out: AKT3-1. In a few lines:
as §1

Test [9] deals with T9, Lck (Homo sapiens, UniProt P06239).
T9 construct: Kinases are expressed as either kinase domains or full length constructs; made in house
T9 sequence (P06239 whole entry, species assumed, the tested form may be a part): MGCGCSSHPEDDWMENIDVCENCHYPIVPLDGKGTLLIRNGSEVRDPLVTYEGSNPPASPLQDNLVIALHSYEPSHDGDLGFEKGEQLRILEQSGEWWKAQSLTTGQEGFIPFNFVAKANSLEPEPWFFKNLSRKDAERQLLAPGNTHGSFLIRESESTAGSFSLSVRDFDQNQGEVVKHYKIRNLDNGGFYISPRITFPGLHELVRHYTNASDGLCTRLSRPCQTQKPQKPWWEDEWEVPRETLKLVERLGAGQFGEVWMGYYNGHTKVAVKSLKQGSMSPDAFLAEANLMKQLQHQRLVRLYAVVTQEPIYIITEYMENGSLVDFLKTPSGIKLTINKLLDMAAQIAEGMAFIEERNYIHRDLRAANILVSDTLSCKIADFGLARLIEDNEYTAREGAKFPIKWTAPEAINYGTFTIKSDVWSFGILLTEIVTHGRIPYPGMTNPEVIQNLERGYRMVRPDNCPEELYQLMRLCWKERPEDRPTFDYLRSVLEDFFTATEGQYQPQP
The test is described as follows: Kinase inhibition assay (33P transfer), Lck. Conditions: Table 3; read-out: Lck-1. In a few lines:
as §1

For test [10], the target named is T10, Tek (Homo sapiens, UniProt Q02763).
T10 construct: Kinases are expressed as either kinase domains or full length constructs; made in house
T10 sequence (Q02763 23-1124, species assumed): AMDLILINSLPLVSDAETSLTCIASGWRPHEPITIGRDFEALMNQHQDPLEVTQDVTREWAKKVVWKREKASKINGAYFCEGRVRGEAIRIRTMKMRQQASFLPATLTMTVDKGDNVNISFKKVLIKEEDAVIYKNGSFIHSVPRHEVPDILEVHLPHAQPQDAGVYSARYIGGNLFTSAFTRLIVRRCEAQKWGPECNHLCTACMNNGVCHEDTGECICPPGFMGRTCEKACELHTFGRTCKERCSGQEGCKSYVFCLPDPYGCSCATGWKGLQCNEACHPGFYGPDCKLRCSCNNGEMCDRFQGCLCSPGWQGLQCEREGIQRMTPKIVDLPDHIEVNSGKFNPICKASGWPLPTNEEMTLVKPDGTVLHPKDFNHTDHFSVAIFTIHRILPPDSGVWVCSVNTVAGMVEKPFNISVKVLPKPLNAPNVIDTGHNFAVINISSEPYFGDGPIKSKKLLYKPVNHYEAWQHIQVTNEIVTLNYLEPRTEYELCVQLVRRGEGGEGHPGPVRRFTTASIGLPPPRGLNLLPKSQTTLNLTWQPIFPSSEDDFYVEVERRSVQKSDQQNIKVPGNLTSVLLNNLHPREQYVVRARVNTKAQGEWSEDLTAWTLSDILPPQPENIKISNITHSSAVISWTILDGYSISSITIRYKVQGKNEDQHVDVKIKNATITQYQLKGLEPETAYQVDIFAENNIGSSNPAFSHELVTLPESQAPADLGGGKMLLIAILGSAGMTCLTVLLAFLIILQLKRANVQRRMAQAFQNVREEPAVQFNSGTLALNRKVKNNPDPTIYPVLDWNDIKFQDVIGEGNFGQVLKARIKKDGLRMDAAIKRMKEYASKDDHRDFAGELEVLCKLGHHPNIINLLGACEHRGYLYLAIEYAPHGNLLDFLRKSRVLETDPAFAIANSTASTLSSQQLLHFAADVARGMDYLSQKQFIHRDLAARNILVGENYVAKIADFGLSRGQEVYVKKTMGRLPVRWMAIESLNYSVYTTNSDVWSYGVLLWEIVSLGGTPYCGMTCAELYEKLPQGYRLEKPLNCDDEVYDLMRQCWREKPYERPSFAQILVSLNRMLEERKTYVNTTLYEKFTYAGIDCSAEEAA
The test is described as follows: Kinase inhibition assay (33P transfer), Tek. Conditions: read-out: Tek-1. In a few lines: as §2

Structures are written as SMILES.

T8 sequence (Q9Y243 whole entry, the tested form may be a part): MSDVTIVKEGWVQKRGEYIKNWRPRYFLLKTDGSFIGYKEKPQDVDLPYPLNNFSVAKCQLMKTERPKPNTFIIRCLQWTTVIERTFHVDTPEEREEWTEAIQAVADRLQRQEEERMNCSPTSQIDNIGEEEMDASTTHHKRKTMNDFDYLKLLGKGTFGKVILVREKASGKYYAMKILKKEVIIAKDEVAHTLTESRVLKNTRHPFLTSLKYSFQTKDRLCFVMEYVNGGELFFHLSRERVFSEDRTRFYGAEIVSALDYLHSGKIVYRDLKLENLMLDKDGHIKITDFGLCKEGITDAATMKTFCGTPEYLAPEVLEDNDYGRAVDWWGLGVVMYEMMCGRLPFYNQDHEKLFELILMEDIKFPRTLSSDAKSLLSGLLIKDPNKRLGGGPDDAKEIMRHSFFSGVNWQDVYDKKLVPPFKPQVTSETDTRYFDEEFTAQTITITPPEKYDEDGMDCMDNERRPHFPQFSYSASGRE
T7 sequence (P08581 25-1390): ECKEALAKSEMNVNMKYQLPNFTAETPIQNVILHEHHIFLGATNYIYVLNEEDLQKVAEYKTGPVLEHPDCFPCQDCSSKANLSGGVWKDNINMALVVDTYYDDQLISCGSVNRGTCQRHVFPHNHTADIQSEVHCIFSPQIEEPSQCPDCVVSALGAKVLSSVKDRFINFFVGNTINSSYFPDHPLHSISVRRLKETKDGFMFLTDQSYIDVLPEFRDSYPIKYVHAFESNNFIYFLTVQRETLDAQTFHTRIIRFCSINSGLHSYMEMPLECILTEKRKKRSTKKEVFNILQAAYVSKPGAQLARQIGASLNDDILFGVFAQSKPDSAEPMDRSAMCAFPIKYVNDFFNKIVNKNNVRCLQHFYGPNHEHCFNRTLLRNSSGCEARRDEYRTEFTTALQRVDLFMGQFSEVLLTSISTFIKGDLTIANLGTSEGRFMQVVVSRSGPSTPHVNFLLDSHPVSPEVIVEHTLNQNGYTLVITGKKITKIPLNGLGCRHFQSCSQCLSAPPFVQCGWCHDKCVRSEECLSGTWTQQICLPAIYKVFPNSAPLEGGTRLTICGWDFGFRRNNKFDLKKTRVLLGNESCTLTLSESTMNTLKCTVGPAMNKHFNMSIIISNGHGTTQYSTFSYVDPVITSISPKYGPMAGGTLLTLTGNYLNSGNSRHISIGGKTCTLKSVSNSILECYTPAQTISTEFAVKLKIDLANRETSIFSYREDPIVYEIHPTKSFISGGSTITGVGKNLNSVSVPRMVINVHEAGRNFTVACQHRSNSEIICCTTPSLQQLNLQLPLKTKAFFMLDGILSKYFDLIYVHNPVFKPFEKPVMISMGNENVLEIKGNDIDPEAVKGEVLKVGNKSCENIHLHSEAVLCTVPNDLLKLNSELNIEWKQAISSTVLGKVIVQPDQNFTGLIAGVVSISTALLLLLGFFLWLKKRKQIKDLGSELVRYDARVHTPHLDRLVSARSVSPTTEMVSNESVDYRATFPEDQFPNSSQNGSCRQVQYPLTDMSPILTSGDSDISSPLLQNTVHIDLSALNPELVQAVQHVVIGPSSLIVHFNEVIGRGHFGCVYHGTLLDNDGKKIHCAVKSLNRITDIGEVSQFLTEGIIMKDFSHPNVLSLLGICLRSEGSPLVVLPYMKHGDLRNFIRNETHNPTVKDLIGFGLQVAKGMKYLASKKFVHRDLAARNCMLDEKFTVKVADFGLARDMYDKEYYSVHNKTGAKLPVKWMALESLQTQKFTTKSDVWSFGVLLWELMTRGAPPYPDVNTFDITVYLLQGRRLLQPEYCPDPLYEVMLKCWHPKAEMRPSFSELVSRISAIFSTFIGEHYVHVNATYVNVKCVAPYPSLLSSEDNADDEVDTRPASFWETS
T6 sequence (P08069 31-1367): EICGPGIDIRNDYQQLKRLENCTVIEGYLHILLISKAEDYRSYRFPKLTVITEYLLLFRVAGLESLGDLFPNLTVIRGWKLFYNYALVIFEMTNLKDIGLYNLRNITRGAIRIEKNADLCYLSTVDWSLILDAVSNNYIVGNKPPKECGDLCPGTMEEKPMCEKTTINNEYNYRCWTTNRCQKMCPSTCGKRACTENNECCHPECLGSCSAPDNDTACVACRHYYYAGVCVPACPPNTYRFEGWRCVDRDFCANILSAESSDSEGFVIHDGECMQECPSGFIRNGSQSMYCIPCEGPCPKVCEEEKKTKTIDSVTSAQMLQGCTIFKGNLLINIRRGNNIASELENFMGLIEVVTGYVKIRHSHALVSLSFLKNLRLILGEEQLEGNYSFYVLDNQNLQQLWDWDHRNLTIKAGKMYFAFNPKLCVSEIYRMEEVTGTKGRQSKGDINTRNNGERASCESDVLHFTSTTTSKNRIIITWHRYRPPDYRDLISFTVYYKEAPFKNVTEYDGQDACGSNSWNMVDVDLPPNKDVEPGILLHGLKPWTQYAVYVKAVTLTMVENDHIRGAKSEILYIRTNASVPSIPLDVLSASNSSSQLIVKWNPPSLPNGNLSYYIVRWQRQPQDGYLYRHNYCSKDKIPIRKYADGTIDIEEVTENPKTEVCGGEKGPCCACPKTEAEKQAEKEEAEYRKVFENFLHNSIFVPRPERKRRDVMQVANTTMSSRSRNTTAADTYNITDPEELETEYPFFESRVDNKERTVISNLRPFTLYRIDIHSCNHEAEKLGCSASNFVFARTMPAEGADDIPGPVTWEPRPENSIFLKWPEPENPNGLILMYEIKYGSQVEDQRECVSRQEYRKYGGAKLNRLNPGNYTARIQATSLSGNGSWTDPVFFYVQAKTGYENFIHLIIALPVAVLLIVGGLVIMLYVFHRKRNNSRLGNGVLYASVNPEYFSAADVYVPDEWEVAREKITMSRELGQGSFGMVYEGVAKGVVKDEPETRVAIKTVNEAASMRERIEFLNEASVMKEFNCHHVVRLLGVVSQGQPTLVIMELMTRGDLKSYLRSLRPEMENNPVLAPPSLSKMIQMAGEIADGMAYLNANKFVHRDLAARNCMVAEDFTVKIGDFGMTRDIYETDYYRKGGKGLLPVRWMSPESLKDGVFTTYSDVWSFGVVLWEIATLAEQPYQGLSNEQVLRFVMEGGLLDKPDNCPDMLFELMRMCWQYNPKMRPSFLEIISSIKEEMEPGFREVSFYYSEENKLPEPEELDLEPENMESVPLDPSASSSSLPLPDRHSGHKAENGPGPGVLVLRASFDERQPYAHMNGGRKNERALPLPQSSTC

Take `COc1ccc(Oc2ncnc(Nc3cc(OC)c(OC)c(OC)c3)n2)cc1` [Compound 174]: the IC50 was above 11.7 µM in test [1]; 6.24 to 9.11 µM in [2]; above 11.7 µM in test [3]; below 1.04 µM in test [4]; above 11.7 µM in test [5]; above 11.7 µM in test [6]. Also, the IC50 in [7], in test [8], in test [9] and in test [10] was above 11.7 µM in each case.
As to `COc1cc(Nc2ncnc(NN3CCOCC3)n2)cc(OC)c1OC` [Compound 103], the IC50 was above 12.4 µM in test [1]; above 12.4 µM in test [2]; 1.1 to 6.62 µM in [3]; above 12.4 µM in [4]; above 12.4 µM in [5]; 6.62 to 9.66 µM in [6]. Also, the IC50 in test [7] was above 12.4 µM; in test [8], 1.1 to 6.62 µM; in test [9] it was above 12.4 µM; in [10] it was above 12.4 µM.
For the compound `COc1cc(Nc2ncnc(-c3cc4ccccc4s3)n2)cc(OC)c1OC` [Compound 218], the IC50 in test [1], in test [2], in test [3], in test [4], in test [5] and in test [6] was above 11.4 µM each time. Moreover, the IC50 in [7], in [8], in test [9] and in [10] was above 11.4 µM throughout.
For `COc1cc(Nc2ncnc(Nc3ccc(S(=O)(=O)NC(C)=O)cc3)n2)cc(OC)c1OC` [Compound 255], the IC50 is above 9.48 µM in test [1]; above 9.48 µM in [2]; above 9.48 µM in [3]; below 0.843 µM in [4]; above 9.48 µM in test [5]; above 9.48 µM in test [6]. Moreover, the IC50 in test [7], in test [8], in [9] and in [10] was above 9.48 µM each time.
For `COc1cc(Nc2ncnc(N(CC(=O)OC(C)(C)C)c3ccc(Cl)cc3)n2)cc(OC)c1OC` [Compound 291], the IC50 in test [1] is above 8.96 µM; in test [2], 0.797 to 4.78 µM; in test [3], 6.97 to 8.96 µM; in [4], 4.78 to 6.97 µM; in test [5], above 8.96 µM; in test [6] it was above 8.96 µM. In addition, the IC50 was above 8.96 µM in [7], above 8.96 µM in test [8], 4.78 to 6.97 µM in test [9] and 6.97 to 8.96 µM in test [10].
Regarding `CCOc1ccc(Nc2ncnc(-n3c(N)nc4ccccc43)n2)cc1OCC` [Compound 299], the IC50 was 1.02 to 6.13 µM in test [1]; 6.13 to 8.94 µM in [2]; above 11.5 µM in test [3]; 1.02 to 6.13 µM in test [4]; above 11.5 µM in [5]; 6.13 to 8.94 µM in [6]. Besides, the IC50 in test [7] is 1.02 to 6.13 µM; in test [8], 1.02 to 6.13 µM; in test [9], 8.94 to 11.5 µM; in test [10], 6.13 to 8.94 µM.
On to `COc1cc(Nc2ncnc(Nc3c(C)n(C)n(-c4ccccc4)c3=O)n2)cc(OC)c1OC` [Compound 256], for which the IC50 is above 9.71 µM in test [1]; above 9.71 µM in test [2]; above 9.71 µM in [3]; 7.55 to 9.71 µM in test [4]; above 9.71 µM in test [5]; above 9.71 µM in test [6]. The IC50 in [7], in test [8], in test [9] and in test [10] was above 9.71 µM in each case.
In the case of `COc1cc(Nc2ncnc(-c3ccc(F)cc3)n2)cc(OC)c1OC` [Compound 222], the IC50 is above 12.6 µM in test [1]; above 12.6 µM in [2]; above 12.6 µM in [3]; 9.82 to 12.6 µM in [4]; above 12.6 µM in [5]; above 12.6 µM in [6]. The IC50 in [7], in test [8], in test [9] and in test [10] was above 12.6 µM throughout.
For `COc1cc(Nc2ncnc(N(Cc3ccccc3)c3nc4ccccc4[nH]3)n2)cc(OC)c1OC` [Compound 373], the IC50 is above 9.31 µM in test [1]; 4.96 to 7.24 µM in test [2]; above 9.31 µM in test [3]; 0.827 to 4.96 µM in [4]; above 9.31 µM in [5]; above 9.31 µM in test [6]. Besides, the IC50 in test [7] is above 9.31 µM; in test [8], above 9.31 µM; in [9] it was above 9.31 µM; in test [10] it was 0.827 to 4.96 µM.
`COc1cc(Nc2ncnc(N3CCC(O)CC3)n2)cc(OC)c1OC` [Compound 208]: the IC50 was above 12.5 µM in test [1]; above 12.5 µM in test [2]; above 12.5 µM in test [3]; 1.11 to 6.64 µM in test [4]; above 12.5 µM in test [5]; above 12.5 µM in [6]. The IC50 is 9.68 to 12.5 µM in test [7], above 12.5 µM in test [8], above 12.5 µM in test [9] and above 12.5 µM in test [10].
For the compound `COc1cc(Nc2ncnc(-c3cccc(Cl)c3)n2)cc(OC)c1OC` [Compound 220], the IC50 in test [1], in test [2], in test [3], in [4], in test [5] and in [6] was above 12.1 µM in each case. Further, the IC50 in test [7], in test [8], in test [9] and in [10] was above 12.1 µM in each case.
